As for `Cc1sc2nc(CN3CCOCC3)nc(Cl)c2c1C`, the melting point is 102 to 104 °C. Consider `Cc1c(Cl)cc(N)cc1Cl`, for which the melting point was in the range of 55 to 57 °C. As to `O=C(O)/C=C/c1cn(Cc2ccccc2Cl)nc1-c1ccccc1`, the melting point was in the range of 148 to 150 °C. In the case of `CC(=O)c1cc(Cl)cc(CCl)c1O` it was 72 to 74 °C; in that of `CC1CC1C(N)=O` (stereo not given), 93 to 95 °C; in that of `COc1cc(/C=C/C(=O)O)ccc1OCc1c(C)noc1C`, 110 to 112 °C.

Take `Cc1cc(C(=O)O)cc(C)c1OCc1cccnc1`: the melting point lay in the range of 182 to 184 °C. As to `CC(C)(C)c1cc(=O)[nH]c(C(C)(C)C)n1`, the melting point is 163 to 165 °C.

In turn, `NS(=O)(=O)c1cc(F)cc([N+](=O)[O-])c1` showed a melting point of 184 to 186 °C. The compound `CC(O)c1nc2ncc(Br)cc2[nH]1` (stereo not given) registered a melting point of 218 to 220 °C.

`Cc1cccc(-c2nc(N)n[nH]2)c1[N+](=O)[O-]`: the melting point lay within 242 to 244 °C. In the case of `CC(Cl)C(=O)NCCc1ccc2c(c1)OCCO2` (stereo not given) it was 106 to 108 °C; in that of `CCC(=O)Nc1cccc(C(=O)O)c1`, 229 to 231 °C; in that of `N#CNC1=NCCCCC1`, 79 to 81 °C.

The compound `O=C(O)c1cccc(NS(=O)(=O)c2ccc(Cl)c(Cl)c2)c1` came in with a melting point of 254 to 256 °C. In the case of `Oc1cccc(-c2nnc3n2CCCCC3)c1` it was 244 to 246 °C; in that of `CN(C)S(=O)(=O)c1ccc(Cl)c(C(=O)O)c1`, 181 to 183 °C; in that of `CC(SC1=NS(=O)(=O)c2ccccc21)C(=O)O` (stereo not given), 182 to 184 °C. In the case of `CCS(=O)(=O)NC1CCCNC1` (stereo not given) it was 104 to 106 °C; in that of `COCC(C)C(N)=S` (stereo not given), 42 to 44 °C; in that of `CC(C)(C)OC(=O)N1CCc2cc(N)ccc21`, 84 to 86 °C. In the case of `COc1cc(NC(=O)C2CC2)c(C(=O)O)cc1OC` it was 236 to 238 °C; in that of `CS(=O)(=O)c1ccccc1N`, 62 to 64 °C. The compound `O=c1ccc(S(=O)(=O)N2CCCCC2)c[nH]1` yielded a melting point of 239 to 241 °C. Take `O=C(O)c1ccnc(-n2cncn2)c1`: the melting point was 314 to 316 °C. The compound `O=C(O)c1ccccc1N1CCCC1=O` returned a melting point of 197 to 199 °C. As to `CCc1nc(N)sc1C(=O)OC`, the melting point was 181 to 183 °C. In the case of `Nc1sc2c(c1C(=O)c1ccc(F)cc1)CCC2` it was 139 to 141 °C. Regarding `NC(=S)C1CCOC1` (stereo not given), the melting point is 102 to 104 °C. Compound `CCS(=O)(=O)c1ccc(S(=O)(=O)Cl)cc1` displayed a melting point of 104 to 106 °C. `O=C(O)CN1C(=O)COc2ccccc21`: the melting point fell in the range of 229 to 231 °C. In the case of `CC(C)Cc1ccc(C(=O)c2cccs2)cc1` it was 112 to 114 °C; in that of `Oc1nnc2c(Cl)cccn12`, 269 to 271 °C. In the case of `Cc1nc(Cl)cc(-c2ccncc2)n1` it was 111 to 113 °C. In the case of `Cc1ccc(C)n1Cc1ccccc1Cl`, the melting point was 87 to 89 °C.

With `O=C(O)c1ccc2nc(Cl)ccc2c1`, the melting point lay within 228 to 230 °C. Compound `Sc1nc(-c2ccccn2)no1` yielded a melting point of 146 to 148 °C. Regarding `N#Cc1ccncc1C(=O)O`, the melting point was in the range of 175 to 177 °C.

The compound `Cc1ccc(C(=O)C(Br)CC(=O)O)cc1` (stereo not given) returned a melting point of 116 to 118 °C. Compound `NC(=S)NCc1ccc(OC(F)(F)F)cc1` registered a melting point of 120 to 122 °C. In the case of `O=C1NCCCC1Br` (stereo not given) it was 49 to 51 °C; in that of `FC(F)(F)c1ccc(CNc2ccc(Br)cc2)cc1`, 70 to 72 °C. In the case of `CCN(CCC(=O)O)Cc1nc2c(C)cccc2c(=O)[nH]1`, the melting point lay within 184 to 186 °C. `O=C(O)c1cc(S(=O)(=O)Cl)ccc1F` gave a melting point of 107 to 109 °C.

`O=C1NC(=O)C(c2ccccc2)(C(F)(F)F)N1` (stereo not given): the melting point was in the range of 240 to 242 °C. In the case of `O=S1(=O)CC(SCc2ccccc2)c2ccccc21` (stereo not given) it was 72 to 74 °C; in that of `CCN1CCN(Cc2ccc(N)cc2)CC1`, 72 to 74 °C. In the case of `COCCSc1ccc([N+](=O)[O-])cc1C(=O)O` it was 159 to 161 °C. In the case of `Nc1nc(-c2ccc(Cl)cc2)no1` it was 248 to 250 °C; in that of `O=C1COc2ccc(C(F)(F)F)cc2N1`, 165 to 167 °C; in that of `Nc1ccc(CN2C(=O)CCC2=O)cc1`, 141 to 143 °C. `COc1cc(OC)cc(N2CCCNCC2)c1` showed a melting point of 50 to 52 °C.

For `COc1ccc(S(=O)(=O)N(C)C)cc1NC(=O)CCl`, the melting point is 152 to 154 °C. In the case of `Clc1ccc2c(n1)CCC2` it was 69 to 71 °C; in that of `Nc1cc([N+](=O)[O-])ccc1Sc1cccs1`, 94 to 96 °C; in that of `CCOC(=O)c1ccc(NCC2CC2)cc1`, 69 to 71 °C.

Compound `Cc1ccc2oc(C(=O)O)cc2c1` returned a melting point of 243 to 245 °C.

In the case of `COc1ccc(NC(=O)C(C)Cl)cc1OC` (stereo not given), the melting point lay within 109 to 111 °C. In the case of `O=C(O)c1cccc(S(=O)(=O)Nc2ccc(Cl)cc2)c1` it was 250 to 252 °C; in that of `c1ccc(OC2CCNCC2)cc1`, 34 to 36 °C; in that of `Cc1ccc(C(=O)N(C)C)cc1N`, 97 to 99 °C.

For `CC(C)c1c(C(=O)O)cnn1-c1ccccn1`, the melting point is 129 to 131 °C. For `Cc1ccc(-n2nc(N)cc2C)cc1`, the melting point is 99 to 101 °C. `Clc1nc(CN2CCCCC2)nc2sc3c(c12)CCC3` returned a melting point of 75 to 77 °C.

Compound `Nc1ccc(Sc2nc3ccccc3[nH]2)cc1` showed a melting point of 224 to 226 °C.

In the case of `COc1ccc(-c2nc(C)c(C(C)=O)s2)cc1`, the melting point lay in the range of 92 to 94 °C. In the case of `Cc1nc2nc(C(F)(F)F)nn2c(C)c1CCC(=O)O` it was 123 to 125 °C; in that of `CN(C)C(=O)N1CCCC(C(=O)O)C1` (stereo not given), 123 to 125 °C. `O=C(O)C1CC(O)CN1C(=O)c1ccc(F)cc1` (stereo not given): the melting point was in the range of 206 to 208 °C.

`CC1=NS(=O)(=O)NC(C)=C1CCC(=O)O` came in with a melting point of 162 to 164 °C.

On to `COc1ccc2nc(Cl)c(C)cc2c1`, for which the melting point is 92 to 94 °C. For the compound `CCNc1nnc(C)c2ccccc12`, the melting point is 135 to 137 °C. In the case of `c1ccc(-c2nnco2)nc1` it was 224 to 226 °C. In the case of `O=C(O)c1cc(-c2ccccn2)nc2ccccc12` it was 297 to 299 °C; in that of `O=C(O)Cc1occc1C(=O)O`, 204 to 206 °C; in that of `CCCN1C(=O)NC(=O)C1=O`, 105 to 107 °C. In the case of `COC(=O)c1sc(-c2cccc(Br)c2)cc1N` it was 107 to 109 °C.

Regarding `O=C(O)c1ccnc(N2CCCCC2)n1`, the melting point lay in the range of 99 to 101 °C.

`COc1ccc(Oc2ccc(C=O)cc2[N+](=O)[O-])cc1` displayed a melting point of 67 to 69 °C.

Regarding `CC(C#N)CSc1ccccc1N` (stereo not given), the melting point fell in the range of 65 to 67 °C. In the case of `O=C(CCl)NCCC1=CCCCC1` it was 60 to 62 °C; in that of `O=C(O)C1CSC(c2cccs2)N1` (stereo not given), 148 to 150 °C. In the case of `COc1ccc(OC)c2c(O)c(C(=O)O)cnc12` it was 272 to 274 °C; in that of `NC(=O)N1CCN(c2ccccc2F)CC1`, 150 to 152 °C; in that of `CCCOc1ccc2[nH]cc(C=O)c2c1`, 139 to 141 °C.

As for `Nc1ccc(-c2cccc(C(F)(F)F)c2)cc1`, the melting point was in the range of 65 to 67 °C. Compound `Nc1cc(Cl)c(NC(=O)c2ccncc2)c(Cl)c1` came in with a melting point of 233 to 235 °C. In the case of `COc1ccccc1Nc1ccc([N+](=O)[O-])cc1N` it was 149 to 151 °C; in that of `Clc1nc(CN2CCCCC2)nc2scc(-c3ccccc3)c12`, 79 to 81 °C; in that of `CC(=O)Nc1ccc(N2C(=O)c3ccc(C(=O)O)cc3C2=O)cc1`, 379 to 381 °C. In the case of `COCC(=O)NC(C)C(=O)O` (stereo not given) it was 108 to 110 °C; in that of `Cc1ccc(N)c(N)c1C`, 49 to 51 °C; in that of `CCCCn1ncc(C(=O)O)c1C`, 77 to 79 °C. `CC(=O)c1cc(F)c(N)c(F)c1` registered a melting point of 69 to 71 °C. On to `NNc1c(Cl)cc(F)cc1Cl`, for which the melting point was 109 to 111 °C. In the case of `O=C1CC(c2ccccc2)=NN1c1ccccc1Br` it was 183 to 185 °C; in that of `O=C(O)c1nc(-c2ccccc2)n(-c2ccccc2)n1`, 177 to 181 °C; in that of `O=C1COc2cc([N+](=O)[O-])c(F)cc2N1`, 221 to 223 °C. In the case of `CC(C)(C)OC(=O)Nc1ccoc1` it was 139 to 141 °C; in that of `NC(=O)C1CCc2ccccc2N1` (stereo not given), 115 to 117 °C. Regarding `Clc1nc(-c2cccs2)nc2scc(-c3ccccc3)c12`, the melting point is 143 to 145 °C.

For the compound `CCN(CC)C(=O)c1ccc(N)cc1`, the melting point was 118 to 120 °C. `O=C(O)c1cc2cccc(Cl)c2o1` returned a melting point of 243 to 245 °C.

With `O=C(O)c1cc2c(OC(F)F)cccc2[nH]1`, the melting point lay in the range of 215 to 217 °C. Consider `NC(=S)c1cc2ccccc2oc1=O`, for which the melting point lay in the range of 241 to 243 °C. In the case of `ClCc1cn(-c2ccc(Cl)c(Cl)c2)nn1` it was 138 to 140 °C; in that of `CC(C)(C)OC(=O)NCc1ccc(C(=O)O)c(C2CC2)n1`, 144 to 146 °C; in that of `CCN(CC)S(=O)(=O)c1ccc(Cl)c(N)c1`, 84 to 88 °C. `CC(C(=O)O)c1ccc2ccccc2c1` (stereo not given): the melting point lay in the range of 120 to 122 °C. In the case of `COc1ccc(S(N)(=O)=O)cc1[N+](=O)[O-]` it was 139 to 141 °C; in that of `N#Cc1cc(C(F)(F)F)ccc1N`, 72 to 74 °C.

`CCC(Nc1ccccc1)C(=O)O` (stereo not given) registered a melting point of 139 to 141 °C.

Consider `CN(C)c1ccc(C(=O)O)c(F)c1`, for which the melting point was 199 to 201 °C.

Turning to `Nc1nnc(C(F)(F)F)[nH]1`, the melting point was in the range of 155 to 157 °C. `CCOc1ccc(N)cc1S(N)(=O)=O` came in with a melting point of 154 to 156 °C. In the case of `CCOC(=O)c1c(-c2ccccc2)oc2ccc(O)cc12` it was 152 to 154 °C; in that of `O=C1CCc2cc(F)ccc2N1`, 134 to 136 °C.

`O=C(O)CCNC(=O)c1ccncc1` registered a melting point of 239 to 241 °C. Regarding `CC1(C)CC(=O)c2ccccc2O1`, the melting point lay within 87 to 89 °C.

With `Nn1c(SCC(=O)O)nnc1C1CCCCC1`, the melting point is 159 to 161 °C.

As usually defined, the melting point is the temperature of the solid-liquid transition.

These data come from a melting point compilation (Tetko et al.).
